Source: ChEMBL document CHEMBL1131990, “The design of potent, selective, non-covalent, peptide thrombin inhibitors utilizing imidazole as a S1 binding element” (Bioorg Med Chem Lett, 1999)

How the values were obtained:
[1] = molecular target: Prothrombin (Homo sapiens) (UniProt P00734); test: Inhibitory activity against the human alpha-thrombin
[2] = molecular target: Vitamin K-dependent protein C (Homo sapiens) (UniProt P04070); test: Inhibitory activity against the human activated protein C
[3] = molecular target: Plasminogen (Homo sapiens) (UniProt P00747); test: Inhibitory activity against the human plasmin
[4] = molecular target: Tissue-type plasminogen activator (Homo sapiens) (UniProt P00750); test: Inhibitory activity against the human tissue plasminogen activator
[5] = molecular target: Urokinase-type plasminogen activator (Homo sapiens) (UniProt P00749); test: Inhibitory activity against the human urokinase
[6] = molecular target: Serine protease 1 (Homo sapiens) (UniProt P07477); test: Inhibitory activity against the human trypsin
[7] = Anticoagulant activity for the compound by determining the concentration required to double the activated partial thromboplastin time.; assay type: functional
[8] = Anticoagulant activity for the compound by determining the concentration required to double the prothrombin time.; assay type: functional
[9] = Anticoagulant activity for the compound by determining the concentration required to double the thrombin time.; assay type: functional
[10] = molecular target: Vitamin K-dependent protein C (Homo sapiens) (UniProt P04070); test: Inhibitory activity against the activated human protein C

Chain of Plasminogen (Homo sapiens) (P00747 97-580 limits assumed): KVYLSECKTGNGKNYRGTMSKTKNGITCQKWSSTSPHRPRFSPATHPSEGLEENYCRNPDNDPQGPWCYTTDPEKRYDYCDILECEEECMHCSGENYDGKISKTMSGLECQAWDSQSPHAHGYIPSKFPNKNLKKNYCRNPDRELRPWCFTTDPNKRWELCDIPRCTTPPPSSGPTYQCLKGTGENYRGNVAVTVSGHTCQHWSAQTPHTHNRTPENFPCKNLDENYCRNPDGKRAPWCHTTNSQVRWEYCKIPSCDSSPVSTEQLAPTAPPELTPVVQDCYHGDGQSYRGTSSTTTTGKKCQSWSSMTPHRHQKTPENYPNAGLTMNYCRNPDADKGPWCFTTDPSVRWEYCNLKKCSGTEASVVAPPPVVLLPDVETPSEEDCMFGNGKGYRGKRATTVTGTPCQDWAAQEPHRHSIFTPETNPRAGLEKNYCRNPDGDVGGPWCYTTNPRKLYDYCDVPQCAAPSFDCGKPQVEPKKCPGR
Chain of Plasminogen (Homo sapiens) (P00747 581-810 limits assumed): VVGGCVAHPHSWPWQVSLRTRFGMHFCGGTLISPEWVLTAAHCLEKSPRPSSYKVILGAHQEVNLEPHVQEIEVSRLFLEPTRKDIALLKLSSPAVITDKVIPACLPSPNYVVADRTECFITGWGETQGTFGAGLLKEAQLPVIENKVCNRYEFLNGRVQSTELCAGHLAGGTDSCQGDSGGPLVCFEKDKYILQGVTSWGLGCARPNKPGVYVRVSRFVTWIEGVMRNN
Chain of Tissue-type plasminogen activator (Homo sapiens) (P00750 36-562 limits assumed): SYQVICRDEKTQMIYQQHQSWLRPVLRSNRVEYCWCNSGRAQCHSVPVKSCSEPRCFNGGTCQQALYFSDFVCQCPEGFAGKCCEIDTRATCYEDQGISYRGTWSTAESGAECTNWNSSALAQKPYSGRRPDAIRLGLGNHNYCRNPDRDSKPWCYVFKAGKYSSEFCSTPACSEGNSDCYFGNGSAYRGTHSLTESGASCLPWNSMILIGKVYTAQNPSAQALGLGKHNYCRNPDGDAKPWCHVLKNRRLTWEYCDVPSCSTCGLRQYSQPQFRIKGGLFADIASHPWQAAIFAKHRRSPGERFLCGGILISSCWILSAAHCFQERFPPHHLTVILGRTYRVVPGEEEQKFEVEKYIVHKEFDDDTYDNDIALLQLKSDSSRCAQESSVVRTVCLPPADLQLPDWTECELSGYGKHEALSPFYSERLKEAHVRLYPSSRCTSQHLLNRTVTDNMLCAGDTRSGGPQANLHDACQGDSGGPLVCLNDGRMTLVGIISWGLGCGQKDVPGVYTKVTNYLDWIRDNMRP
Chain of Serine protease 1 (Homo sapiens) (P07477 whole entry): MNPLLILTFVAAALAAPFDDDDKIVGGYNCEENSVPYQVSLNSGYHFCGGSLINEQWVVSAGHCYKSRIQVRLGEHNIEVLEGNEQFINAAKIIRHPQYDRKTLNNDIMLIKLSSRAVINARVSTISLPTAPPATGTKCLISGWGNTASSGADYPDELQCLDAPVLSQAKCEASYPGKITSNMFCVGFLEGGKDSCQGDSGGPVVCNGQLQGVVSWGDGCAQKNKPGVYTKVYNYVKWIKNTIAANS
Chain of Vitamin K-dependent protein C (Homo sapiens) (P04070 43-197 limits assumed): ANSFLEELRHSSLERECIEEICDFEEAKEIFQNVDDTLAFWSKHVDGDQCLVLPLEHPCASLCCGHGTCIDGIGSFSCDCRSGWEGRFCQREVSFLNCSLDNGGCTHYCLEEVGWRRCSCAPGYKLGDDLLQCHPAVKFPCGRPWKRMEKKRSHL
Chain of Vitamin K-dependent protein C (Homo sapiens) (P04070 212-461 limits assumed): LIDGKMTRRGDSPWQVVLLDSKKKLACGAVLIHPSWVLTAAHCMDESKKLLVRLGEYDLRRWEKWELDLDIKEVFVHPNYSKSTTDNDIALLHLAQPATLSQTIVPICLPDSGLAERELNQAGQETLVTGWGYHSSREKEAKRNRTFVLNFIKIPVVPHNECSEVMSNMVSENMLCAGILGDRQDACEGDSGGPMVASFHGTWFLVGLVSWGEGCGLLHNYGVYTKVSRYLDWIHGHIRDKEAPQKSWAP

## N[C@H](CC1CCCCC1)C(=O)N1CCC[C@H]1C(=O)NC/C=C/c1c[nH]cn1
[1]
  K ass: 1.6e+07 l M-1

## N[C@H](CC1CCCCC1)C(=O)N1CCC[C@H]1C(=O)NCCc1c[nH]cn1
[1]
  K ass: 4.4e+06 l M-1

## O=C(O)CN[C@H](CC1CCCCC1)C(=O)N1CCC[C@H]1C(=O)NCCCc1c[nH]cn1
[2]
  K ass: 20000 l M-1
[3]
  K ass: < 10000 l M-1
[4]
  K ass: < 10000 l M-1
[1]
  K ass: 1e+08 l M-1
[5]
  K ass: < 10000 l M-1
[6]
  K ass: 290000 l M-1
[7]
  Concentration: 170 ng/mL
[8]
  Concentration: 380 ng/mL
[9]
  Concentration: 20 ng/mL

## NC(N)=NCCCCNC(=O)[C@@H]1CCCN1C(=O)[C@H](N)CC1CCCCC1
[10]
  K ass: 10000 l M-1
[3]
  K ass: 10000 l M-1
[4]
  K ass: 11000 l M-1
[1]
  K ass: 3e+07 l M-1
[5]
  K ass: < 10000 l M-1
[6]
  K ass: 260000 M⁻¹
[7]
  Concentration: 490 ng/mL
[8]
  Concentration: 770 ng/mL
[9]
  Concentration: 44 ng/mL

## CN[C@H](Cc1ccccc1)C(=O)N1CCC[C@H]1C(=O)N[C@H](C=O)CCCNC(=N)N
[10]
  K ass: 300000 l M-1
[3]
  K ass: 1.5e+06 l M-1
[1]
  K ass: 6.7e+08 l M-1
[5]
  K ass: 40000 l M-1
[6]
  K ass: 91 l M-1
[7]
  Concentration: 930 ng/mL
[8]
  Concentration: 1000 ng/mL
[9]
  Concentration: 41 ng/mL

## N[C@H](CC1CCCCC1)C(=O)N1CCC[C@H]1C(=O)NCCCc1c[nH]cn1
[2]
  K ass: < 10000 l M-1
[3]
  K ass: < 10000 l M-1
[4]
  K ass: < 10000 l M-1
[1]
  K ass: 2e+07 l M-1
[5]
  K ass: < 10000 l M-1
[6]
  K ass: 10000 l M-1
[7]
  Concentration: 660 ng/mL
[8]
  Concentration: 1000 ng/mL
[9]
  Concentration: 74 ng/mL

## N[C@H](CC1CCCCC1)C(=O)N1CCC[C@H]1C(=O)NCCCCc1c[nH]cn1
[1]
  K ass: 1.3e+06 l M-1

## O=C(O)CN[C@H](CC1CCCCC1)C(=O)N1CCC[C@H]1C(=O)NC/C=C/c1c[nH]cn1
[1]
  K ass: 8.4e+07 l M-1

## Cc1[nH]cnc1CCCNC(=O)[C@@H]1CCCN1C(=O)[C@H](N)CC1CCCCC1
[1]
  K ass: 2.3e+07 l M-1

## N[C@H](CC1CCCCC1)C(=O)N1[C@H](C(=O)NCCCc2c[nH]cn2)C[C@@H]2CCCC[C@@H]21
[2]
  K ass: 10000 l M-1
[3]
  K ass: < 10000 l M-1
[4]
  K ass: < 10000 l M-1
[1]
  K ass: 3.4e+07 l M-1
[5]
  K ass: < 10000 l M-1
[6]
  K ass: 40000 l M-1
[7]
  Concentration: 470 ng/mL
[8]
  Concentration: 700 ng/mL
[9]
  Concentration: 61 ng/mL

## N[C@H](CC1CCCCC1)C(=O)N1[C@H](C(=O)NC/C=C/c2c[nH]cn2)C[C@@H]2CCCC[C@@H]21
[1]
  K ass: 7e+06 l M-1
